Measurements: patent US20140010939A1, “Sweetness Enhancers, Sweetener Compositions, Methods of Making the Same and Consumables Containing the Same” (Nutrinova Nutrition Specialties & Food Ingredients GmbH, priority 2011, published 2014)

Assay: Taste and spit assay phase I - qualitative assessment
Assay type: in vivo
Settings: 20 μM in 0.5% ethanol, 10 ml samples, 5 individuals, ambient temperature
Description: The taste of a sample of compound of formula (Ia) with regard to sweetness and fructose enhancing features was assessed by using a panel of trained sensory evaluators experienced in the sweet taste estimation procedure. 5 individuals were asked to taste the quality of single samples of 10 ml volume. Panelists were asked to take a sample of the liquid to be assessed (20 μM test substance compound of formula (Ia) in 0.5% ethanol) into the mouth and after some time allowed for taste perception to spit the sample out completely. Subsequently, the panelists were asked to rinse their mouth well with water or black tea to reduce any potential carry over effects. The tasting of a sample could be repeated if required. In a first descriptive test 5 individuals were asked to taste the quality of single samples of 10 ml volume (maximum 3 subsequent samples). The samples were served at ambient temperature. The individuals of the taste panel were asked to answer the following questions with regard to the quality of taste: 1) does the sample taste sweet?, 2) is there another taste detectable (bitter, sour, salty, umami)?, 3) is there an off- or aftertaste?, 4) is there anything else remarkable about the perception of the sample?

For `CC(=O)N(O)CCCCCNC(=O)C(O)(CC(=O)O)CC(=O)NCCCN(O)C(C)=O` (centres unmarked) [compound of formula (Ia)], the “Characteristic taste of the sample (sweet, bitter, sour, salty, umami)” value was “No characteristic taste was identified” and the Off- or aftertaste was “no off-taste was detected”.
